{"source": "patent US12377155B2", "about": "“Bicyclic peptide ligands specific for PSMA” (BicycleRD Limited, priority 2018, dated 2025)", "data": [{"target": "PSMA (Homo sapiens, UniProt Q04609)", "sequence (Q04609 whole entry)": "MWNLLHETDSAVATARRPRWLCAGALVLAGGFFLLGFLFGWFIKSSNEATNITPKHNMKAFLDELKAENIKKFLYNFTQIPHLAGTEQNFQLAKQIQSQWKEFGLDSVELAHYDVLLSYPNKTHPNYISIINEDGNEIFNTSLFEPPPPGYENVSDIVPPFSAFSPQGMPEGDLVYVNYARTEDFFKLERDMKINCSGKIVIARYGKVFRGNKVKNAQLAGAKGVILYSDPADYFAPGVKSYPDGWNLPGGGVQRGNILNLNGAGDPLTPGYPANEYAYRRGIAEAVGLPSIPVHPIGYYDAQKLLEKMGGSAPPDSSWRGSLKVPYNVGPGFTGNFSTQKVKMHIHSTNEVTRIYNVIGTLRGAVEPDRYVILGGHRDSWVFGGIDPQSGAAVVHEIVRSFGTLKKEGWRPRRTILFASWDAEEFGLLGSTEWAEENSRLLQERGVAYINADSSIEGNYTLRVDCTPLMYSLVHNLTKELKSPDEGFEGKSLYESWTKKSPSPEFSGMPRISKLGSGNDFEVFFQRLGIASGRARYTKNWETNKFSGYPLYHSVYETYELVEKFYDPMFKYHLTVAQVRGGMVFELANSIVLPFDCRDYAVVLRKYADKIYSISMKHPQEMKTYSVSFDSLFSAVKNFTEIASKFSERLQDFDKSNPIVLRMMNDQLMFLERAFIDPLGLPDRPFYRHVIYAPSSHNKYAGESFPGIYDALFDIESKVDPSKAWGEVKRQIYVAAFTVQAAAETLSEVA", "experiment": "PSMA binding, fluorescence polarization assay", "details": "as shown in Table 1", "method": "PSMA binding was measured using the fluorescence polarization assay methodology described in Shen et al (2013) PLOS ONE 8(7), […] and PSMA enzyme inhibition was measured using the methodology described in WO 2009/070302.\nThe peptide ligands of the invention were tested in the above mentioned PSMA binding and enzyme inhibition assays and the results are shown in Table 1: […]", "values": [{"substance": "FCSECYMMEDGTCA [21-31-11-T01-N001]", "PSMA binding (statement in words)": "superior PSMA binding"}, {"substance": "EVCWDCFMMEDGTCA [21-31-04-T01-N001]", "PSMA binding (statement in words)": "superior PSMA binding"}, {"substance": "Ac-(D-E)VCWDCFM(Nle)EDGTCA-Sar6-(D-K) [21-31-04-T01-N009]", "PSMA binding (statement in words)": "superior PSMA binding"}, {"substance": "LCMECYMMEDGTCA [21-31-12-T01-N001]", "PSMA binding (statement in words)": "superior PSMA binding"}]}]}
